The supplement of paper PMC10307832

Experiments:
Test in all cases: relative viability (nuclei count vs DMSO), 5 days (fraction); higher = more cells survive
[1] = compound: CS(=O)(=O)CCNCc1ccc(-c2ccc3ncnc(Nc4ccc(OCc5cccc(F)c5)c(Cl)c4)c3c2)o1 [Lapatinib] + Cc1nc(Nc2ncc(C(=O)Nc3c(C)cccc3Cl)s2)cc(N2CCN(CCO)CC2)n1 [Dasatinib] (partner 0.075 µM)
Procedure, shortened: (§1)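 Each reported value is a median over duplicate plates. It expresses relative viability: treated-well nuclei count divided by vehicle-well nuclei count. Lung cancer cell lines in 1536-well plates were dosed by pin tool a day after seeding, alone with one drug or with a fixed anchor-drug dose plus five library-drug doses (not always all listed) in √10 steps, and nuclei were counted after 5 days.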

[2] = compound: CS(=O)(=O)CCNCc1ccc(-c2ccc3ncnc(Nc4ccc(OCc5cccc(F)c5)c(Cl)c4)c3c2)o1 [Lapatinib] + N=C(N)NC(=N)NCCc1ccccc1 [Phenformin] (partner 250 µM)
Procedure, shortened: as §1

[3] = compound: CC1=NC=CC(=C1)C2=CC=C(C=C2)CC(=O)NC3=CC=C(C=C3)C4=CN=CC=C4 [Wnt-C59] + N=C(N)NC(=N)NCCc1ccccc1 [Phenformin] (partner 250 µM)
Procedure, shortened: as §1

[4] = compound: CC1=NC=CC(=C1)C2=CC=C(C=C2)CC(=O)NC3=CC=C(C=C3)C4=CN=CC=C4 [Wnt-C59] + CS(=O)(=O)N1CCN(Cc2cc3nc(-c4cccc5[nH]ncc45)nc(N4CCOCC4)c3s2)CC1 [Pictilisib] (partner 1 µM)
Procedure, shortened: as §1

Cell Line	relative viability ([1]; first compound 0.02 µM)	relative viability ([1]; first compound 0.06325 µM)	relative viability ([1]; first compound 0.2 µM)	relative viability ([1]; first compound 0.6325 µM)	relative viability ([1]; first compound 2 µM)	relative viability ([2]; first compound 0.02 µM)	relative viability ([2]; first compound 0.06325 µM)	relative viability ([2]; first compound 0.2 µM)	relative viability ([2]; first compound 0.6325 µM)	relative viability ([2]; first compound 2 µM)	relative viability ([3]; first compound 0.001 µM)	relative viability ([3]; first compound 0.01 µM)	relative viability ([3]; first compound 0.03162 µM)	relative viability ([3]; first compound 0.1 µM)	relative viability ([4]; first compound 0.001 µM)	relative viability ([4]; first compound 0.01 µM)	relative viability ([4]; first compound 0.03162 µM)	relative viability ([4]; first compound 0.1 µM)
NCI-H1734	0.456	0.384	0.544	0.511	0.488	0.407	0.288	0.374	0.451	0.414	0.389	0.356	0.478	0.354	0.438	0.438	0.473	0.461
NCI-H1666	0.764	0.612	0.748	0.661	0.508	0.555	0.545	0.592	0.611	0.461	0.54	0.498	0.531	0.561	0.43	0.218	0.479	0.477
BEN		0.307	0.303	0.28	0.358		0.301	0.26	0.241	0.229	0.292	0.27	0.269	0.247	0.524	0.667	0.613	0.596
ChaGo-K-1	0.43	0.531	0.544	0.527	0.592	0.379	0.386	0.465	0.454	0.414	0.557	0.466	0.531	0.539	0.461		0.862	1.02
SK-MES-1	0.243	0.143	0.157	0.19	0.126	0.62	0.684	0.684	0.563	0.306	0.673	0.69	0.694	0.695	0.392	0.368	0.305	0.322
NCI-H3122	0.736	0.407	0.85	0.675	0.859		0.379	0.392	0.385	0.33	0.369	0.366	0.36	0.362	0.61	0.642	0.626	0.518
NCI-H1563	0.505	0.405	0.425	0.491	0.435	0.626	0.645	0.69	0.76	0.688	0.688	0.673	0.693	0.666	0.604	0.665	0.721	0.646
CAL-12T		0.216	0.271	0.236	0.131		0.474	0.5	0.404	0.337	0.564	0.581	0.576	0.566	0.259		0.436	0.511
NCI-H1975	0.417	0.316	0.378	0.41	0.219	0.413	0.362	0.385	0.399	0.385	0.396	0.393	0.395	0.406	0.282	0.294	0.326	0.282
NCI-H2009	0.282	0.244	0.358	0.33	0.286	0.528	0.484	0.507	0.513	0.457	0.535	0.514	0.495	0.469	0.744	0.825	0.841	0.784
LC-2-ad		0.382	0.687	0.514	0.465		0.438	0.551	0.478	0.519	0.68	0.546	0.659	0.545	0.435	0.43	0.469	0.472
NCI-H647	0.158	0.155	0.167	0.197	0.201	0.352	0.416	0.517	0.631	0.219	0.479	0.453	0.578	0.481	0.35	0.374	0.39	0.429
HCC-78		0.42	0.333	0.464	0.411		0.631	0.588	0.856	0.654	0.548	0.685	0.701	0.72	0.22	0.185	0.226	0.257
Calu-6															0.856	0.973	0.998	0.873
H3255	0.316	0.325	0.315	0.288	0.18	0.37	0.327	0.314	0.299	0.224	0.372	0.321	0.356	0.332	0.565	0.359	0.431	0.49
EBC-1															0.444	0.349	0.299	0.418
NCI-H1395	0.43	0.39	0.375	0.439	0.425	0.45	0.431	0.442	0.444	0.432	0.442	0.423	0.495	0.429	0.656	0.608	0.655	0.664
PC-14	0.25	0.198	0.251	0.159	0.0375		0.642	0.523	0.461	0.337	0.583	0.713	0.478	0.748	0.761	0.665	0.715	0.553
NCI-H522		0.907	0.901	0.67	0.787		0.557	0.554	0.674	0.546	0.614	0.599	0.601	0.64				
HOP-62	0.508	0.633	0.615	0.69	0.566	0.499	0.641	0.635	0.631	0.695	0.771	0.603	0.662	0.607	0.63	0.76	0.855	0.693
